“And” between values parts separate entries of the source, which are not always exact repeats. Equal values may be shown once. Numbers after ± are expanded uncertainties.
O=C(C(F)(F)C(F)(F)F)C(F)(C(F)(F)F)C(F)(F)F [dodecafluoro-2-methylpentan-3-one]
Details | thermal conductivity
272.59 K, 5172 kPa, Liquid, transient hot wire | 0.06413 ± 0.0013 W/m/K
272.59 K, 11144 kPa, Liquid, transient hot wire | 0.06607 ± 0.0014 W/m/K
272.63 K, 49567 kPa, Liquid, transient hot wire | 0.07698 ± 0.0016 W/m/K
272.63 K, 49576 kPa, Liquid, transient hot wire | 0.07734 ± 0.0016 W/m/K
272.66 K, 412 kPa, Liquid, transient hot wire | 0.06211 ± 0.0013 W/m/K
272.66 K, 419 kPa, Liquid, transient hot wire | 0.06231 ± 0.0013 W/m/K
272.66 K, 59545 kPa, Liquid, transient hot wire | 0.08002 ± 0.0016 W/m/K
272.67 K, 59542 kPa, Liquid, transient hot wire | 0.0797 ± 0.0016 W/m/K
272.71 K, 68218 kPa, Liquid, transient hot wire | 0.08167 ± 0.0017 W/m/K
272.71 K, 68236 kPa, Liquid, transient hot wire | 0.08151 ± 0.0017 W/m/K
273.05 K, 32241 kPa, Liquid, transient hot wire | 0.07208 ± 0.0015 W/m/K
273.05 K, 32245 kPa, Liquid, transient hot wire | 0.0724 ± 0.0015 W/m/K
273.05 K, 40384 kPa, Liquid, transient hot wire | 0.07454 ± 0.0015 W/m/K
273.05 K, 40385 kPa, Liquid, transient hot wire | 0.07459 ± 0.0015 W/m/K
273.05 K, 46114 kPa, Liquid, transient hot wire | 0.07568 ± 0.0016 W/m/K
273.06 K, 24365 kPa, Liquid, transient hot wire | 0.07006 ± 0.0014 W/m/K
273.06 K, 24371 kPa, Liquid, transient hot wire | 0.0701 ± 0.0014 W/m/K
273.07 K, 5155 kPa, Liquid, transient hot wire | 0.06386 ± 0.0013 W/m/K
273.07 K, 46114 kPa, Liquid, transient hot wire | 0.07563 ± 0.0015 W/m/K
273.08 K, 5150 kPa, Liquid, transient hot wire | 0.06384 ± 0.0013 W/m/K
273.1 K, 49569 kPa, Liquid, transient hot wire | 0.07538 ± 0.0015 W/m/K
273.1 K, 49574 kPa, Liquid, transient hot wire | 0.07648 ± 0.0016 W/m/K
273.11 K, 59541 kPa, Liquid, transient hot wire | 0.07959 ± 0.0016 W/m/K
273.12 K, 59533 kPa, Liquid, transient hot wire | 0.07966 ± 0.0016 W/m/K
273.14 K, 68200 kPa, Liquid, transient hot wire | 0.0807 ± 0.0017 W/m/K
273.15 K, 404 kPa, Liquid, transient hot wire | 0.06203 ± 0.0013 W/m/K
273.15 K, 68218 kPa, Liquid, transient hot wire | 0.08063 ± 0.0017 W/m/K
273.16 K, 411 kPa, Liquid, transient hot wire | 0.06212 ± 0.0013 W/m/K
273.17 K, 17550 kPa, Liquid, transient hot wire | 0.06792 ± 0.0014 W/m/K
273.17 K, 17567 kPa, Liquid, transient hot wire | 0.06791 ± 0.0014 W/m/K
273.18 K, 11149 kPa, Liquid, transient hot wire | 0.066 ± 0.0014 W/m/K
273.18 K, 11163 kPa, Liquid, transient hot wire | 0.06608 ± 0.0014 W/m/K
273.61 K, 5151 kPa, Liquid, transient hot wire | 0.06408 ± 0.0013 W/m/K
273.61 K, 5162 kPa, Liquid, transient hot wire | 0.06401 ± 0.0013 W/m/K
273.61 K, 59517 kPa, Liquid, transient hot wire | 0.0783 ± 0.0016 W/m/K
273.62 K, 49564 kPa, Liquid, transient hot wire | 0.07642 ± 0.0016 W/m/K
273.62 K, 49566 kPa, Liquid, transient hot wire | 0.07674 ± 0.0016 W/m/K
273.62 K, 59531 kPa, Liquid, transient hot wire | 0.07779 ± 0.0016 W/m/K
273.65 K, 40387 kPa, Liquid, transient hot wire | 0.07442 ± 0.0015 W/m/K
273.65 K, 40395 kPa, Liquid, transient hot wire | 0.07429 ± 0.0015 W/m/K
273.65 K, 46116 kPa, Liquid, transient hot wire | 0.0758 ± 0.0016 W/m/K
273.65 K, 68183 kPa, Liquid, transient hot wire | 0.08044 ± 0.0016 W/m/K
273.65 K, 68193 kPa, Liquid, transient hot wire | 0.08038 ± 0.0016 W/m/K
273.66 K, 46113 kPa, Liquid, transient hot wire | 0.07572 ± 0.0016 W/m/K
273.67 K, 32245 kPa, Liquid, transient hot wire | 0.07209 ± 0.0015 W/m/K
273.67 K, 32247 kPa, Liquid, transient hot wire | 0.07216 ± 0.0015 W/m/K
273.7 K, 424 kPa, Liquid, transient hot wire | 0.0621 ± 0.0013 W/m/K
273.7 K, 24366 kPa, Liquid, transient hot wire | 0.07016 ± 0.0014 W/m/K
273.7 K, 24370 kPa, Liquid, transient hot wire | 0.07021 ± 0.0014 W/m/K
273.71 K, 432 kPa, Liquid, transient hot wire | 0.06209 ± 0.0013 W/m/K
273.81 K, 17553 kPa, Liquid, transient hot wire | 0.06799 ± 0.0014 W/m/K
273.82 K, 17545 kPa, Liquid, transient hot wire | 0.06795 ± 0.0014 W/m/K
273.85 K, 11147 kPa, Liquid, transient hot wire | 0.06585 ± 0.0014 W/m/K
273.86 K, 11155 kPa, Liquid, transient hot wire | 0.06592 ± 0.0014 W/m/K
274.19 K, 59501 kPa, Liquid, transient hot wire | 0.07896 ± 0.0016 W/m/K
274.2 K, 59504 kPa, Liquid, transient hot wire | 0.07856 ± 0.0016 W/m/K
274.21 K, 49565 kPa, Liquid, transient hot wire | 0.07644 ± 0.0016 W/m/K
274.21 K, 49570 kPa, Liquid, transient hot wire | 0.07662 ± 0.0016 W/m/K
274.22 K, 68163 kPa, Liquid, transient hot wire | 0.08055 ± 0.0016 W/m/K
274.22 K, 68173 kPa, Liquid, transient hot wire | 0.08038 ± 0.0016 W/m/K
274.29 K, 46110 kPa, Liquid, transient hot wire | 0.07571 ± 0.0016 W/m/K
274.3 K, 46107 kPa, Liquid, transient hot wire | 0.07575 ± 0.0016 W/m/K
274.31 K, 40378 kPa, Liquid, transient hot wire | 0.07418 ± 0.0015 W/m/K
274.31 K, 40391 kPa, Liquid, transient hot wire | 0.07426 ± 0.0015 W/m/K
274.35 K, 32242 kPa, Liquid, transient hot wire | 0.0723 ± 0.0015 W/m/K
274.35 K, 32249 kPa, Liquid, transient hot wire | 0.0721 ± 0.0015 W/m/K
274.39 K, 24361 kPa, Liquid, transient hot wire | 0.07 ± 0.0014 W/m/K
274.4 K, 24354 kPa, Liquid, transient hot wire | 0.06999 ± 0.0014 W/m/K
274.53 K, 17544 kPa, Liquid, transient hot wire | 0.068 ± 0.0014 W/m/K
274.54 K, 17533 kPa, Liquid, transient hot wire | 0.06799 ± 0.0014 W/m/K
274.59 K, 11155 kPa, Liquid, transient hot wire | 0.06582 ± 0.0014 W/m/K
274.6 K, 11134 kPa, Liquid, transient hot wire | 0.06585 ± 0.0014 W/m/K
274.82 K, 59491 kPa, Liquid, transient hot wire | 0.07869 ± 0.0016 W/m/K
274.82 K, 59496 kPa, Liquid, transient hot wire | 0.07855 ± 0.0016 W/m/K
274.83 K, 68150 kPa, Liquid, transient hot wire | 0.0803 ± 0.0016 W/m/K
274.83 K, 68153 kPa, Liquid, transient hot wire | 0.08033 ± 0.0016 W/m/K
274.86 K, 49566 kPa, Liquid, transient hot wire | 0.0765 ± 0.0016 W/m/K
274.86 K, 49571 kPa, Liquid, transient hot wire | 0.07653 ± 0.0016 W/m/K
300.59 K, 40 kPa, Gas, hot wire | 0.01173 ± 0.00055 W/m/K
300.6 K, 35 kPa, Gas, hot wire | 0.01177 ± 0.00059 W/m/K
300.6 K, 40 kPa, Gas, hot wire | 0.01173 ± 0.00055 W/m/K
300.61 K, 35 kPa, Gas, hot wire | 0.01163 ± 0.00066 W/m/K
300.62 K, 27 kPa, Gas, hot wire | 0.01161 ± 0.00055 W/m/K and 0.01166 ± 0.00055 W/m/K
300.8 K, 40 kPa, Gas, hot wire | 0.01173 ± 0.00055 W/m/K and 0.01174 ± 0.00055 W/m/K

— the NIST ThermoML archive (doi:10.1021/acs.jced.8b00132)
